How the values were obtained:
Format in all cases: in vivo
Details in all cases: 312 h, evaluated after 13 days, 100=total damage to plant, 0=no damage to plant
[1] = test system: Alopecurus myosuroides (ALOMY); assay: Test Example B, post-emergence herbicidal test
Method: (§1) Seeds of a variety of test species were sown in standard soil in pots. After cultivation for one day (pre-emergence) or after 8 days cultivation (post-emergence) under controlled conditions in a glasshouse (at 24/16° C., day/night; 14 hours light; 65% humidity), the plants were sprayed with an aqueous spray solution derived from the formulation of the technical active ingredient in acetone/water (50:50) solution containing 0.5% Tween 20 (polyoxyethelyene sorbitan monolaurate, CAS RN 9005-64-5). The test plants were then grown in a glasshouse under controlled conditions in a glasshouse (at 24/16° C., day/night; 14 hours light; 65% humidity) and watered twice daily. After 13 days for pre and post-emergence, the test was evaluated (100=total damage to plant; 0=no damage to plant). Test Plants: Setaria faberi (SETFA), Alopecurus myosuroides (ALOMY), Echinochloa crus-galli (ECHCG), and Avena fatua (AVEFA).

[2] = test system: Echinochloa crus-galli (ECHCG); assay: Test Example B, post-emergence herbicidal test
Method: as §1

Avena fatua (AVEFA) [3] = assay: Test Example B, post-emergence herbicidal test
Method: as §1

[4] = test system: Alopecurus myosuroides (ALOMY); assay: Test Example B, pre-emergence herbicidal test
Method: as §1

[5] = test system: Echinochloa crus-galli (ECHCG); assay: Test Example B, pre-emergence herbicidal test
Method: as §1

Avena fatua (AVEFA) [6] = assay: Test Example B, pre-emergence herbicidal test
Method: as §1

SMILES | pest or weed control at 250 g/ha [1] [%] | pest or weed control at 250 g/ha [2] [%] | pest or weed control at 250 g/ha (Avena fatua (AVEFA) [3]) [%] | pest or weed control at 250 g/ha [4] [%] | pest or weed control at 250 g/ha [5] [%] | pest or weed control at 250 g/ha (Avena fatua (AVEFA) [6]) [%]
CCc1ccc(-c2ccc(Cl)cc2)cc1C1=C(O)[C@H]2[C@H]3CC[C@H](C3)[C@H]2C1=O (racemic) [Compound T1, rac-(3aR,4R,7S,7aS)-2-(4′-chloro-4-ethylbiphenyl-3-yl)hexahydro-4,7-methanoindene-1,3-dione] | 90 | 100 | 100 | 70 | 100 | 100
CCc1ccc(-c2ccc(Cl)cc2)cc1C1=C(O)[C@H]2[C@H]3CC[C@H](CC3)[C@H]2C1=O (racemic) [Compound T3, rac-(3aR,7aS)-2-(4′-chloro-4-ethylbiphenyl-3-yl)hexahydro-4,7-ethanoindene-1,3-dione] | 100 | 100 | 90 | 70 | 100 | 70
CCc1ccc(-c2ccc(Cl)cc2)cc1C1=C(O)[C@@H]2[C@H](C1=O)[C@@H]1C=C[C@H]2CC1 (racemic) [Compound T6, rac-(3aR,4S,7R,7aS)-2-(4′-chloro-4-ethylbiphenyl-3-yl)-3a,4,7,7a-tetrahydro-4,7-ethanoindene-1,3-dione] | 70 | 100 | 60 | 60 | 100 | 40
CCc1ccc(-c2ccc(Cl)cc2F)cc1C1=C(O)[C@H]2[C@H]3CC[C@H](CC3)[C@H]2C1=O (racemic) [Compound T10, rac-(3aR,7aS)-2-(4′-chloro-4-ethyl-2′-fluorobiphenyl-3-yl)hexahydro-4,7-ethanoindene-1,3-dione] | 0 | 90 | 0 | 0 | 90 | 0
CCc1ccc(-c2ccc(Cl)cc2F)cc1C1=C(O)[C@H]2[C@H]3CC[C@H](C3)[C@H]2C1=O (racemic) [Compound T28, rac-(3aR,4R,7S,7aS)-2-(4′-chloro-4-ethyl-2′-fluorobiphenyl-3-yl)-hexahydro-4,7-methanoindene-1,3-dione] | 30 | 90 | 10 | 60 | 100 | 90
Cc1ccc(-c2ccc(Cl)cc2)cc1C1=C(O)[C@H]2[C@H]3CC[C@H](C3)[C@H]2C1=O [Compound T2] | 40 | 100 | 60 | 30 | 100 | 80
Cc1ccc(-c2ccc(Cl)cc2)cc1C1=C(O)[C@H]2[C@H]3CC[C@H](CC3)[C@H]2C1=O [Compound T4] | 70 | 100 | 80 | 50 | 100 | 70
CCc1ccc(-c2ccc(Cl)cc2Cl)cc1C1=C(O)[C@H]2[C@H]3CC[C@H](CC3)[C@H]2C1=O [Compound T11] | 90 | 100 | 100 | 0 | 60 | 0
CCc1ccc(-c2ccc(Cl)cc2C)cc1C1=C(O)[C@H]2[C@H]3CC[C@H](CC3)[C@H]2C1=O [Compound T12] | 90 | 100 | 40 | 60 | 100 | 20
CCc1ccc(-c2ccc(Cl)c(Cl)c2)cc1C1=C(O)[C@H]2[C@H]3CC[C@H](CC3)[C@H]2C1=O [Compound T13] | 60 | 100 | 60 | 20 | 90 | 0
CCc1ccc(-c2ccc(Cl)c(OC)c2)cc1C1=C(O)[C@H]2[C@H]3CC[C@H](CC3)[C@H]2C1=O [Compound T14] | 0 | 90 | 0 | 80 | 100 | 70
CCc1ccc(-c2cc(Cl)sc2Cl)cc1C1=C(O)[C@H]2[C@H]3CC[C@H](CC3)[C@H]2C1=O [Compound T15] | 40 | 80 | 30 | 0 | 30 | 0
CCc1ccc(-c2ccc(Cl)c(C(F)(F)F)c2)cc1C1=C(O)[C@H]2[C@H]3CC[C@H](CC3)[C@H]2C1=O [Compound T16] | 0 | 30 | 0 | 60 | 100 | 20
CCc1ccc(-c2ccc(Cl)s2)cc1C1=C(O)[C@H]2[C@H]3CC[C@H](CC3)[C@H]2C1=O [Compound T17] | 40 | 90 | 50 | 80 | 100 | 90
CCc1ccc(-c2ccc(Cl)c(F)c2)cc1C1=C(O)[C@H]2[C@H]3CC[C@H](CC3)[C@H]2C1=O [Compound T18] | 100 | 100 | 100 | 50 | 90 | 50
CCc1ccc(-c2c(F)cc(Cl)cc2F)cc1C1=C(O)[C@H]2[C@H]3CC[C@H](CC3)[C@H]2C1=O [Compound T20] | 100 | 100 | 100 | 100 | 100 | 100
CCc1ccc(-c2ccc(Cl)cc2Cl)cc1C1=C(O)[C@H]2[C@H]3CC[C@H](C3)[C@H]2C1=O [Compound T29] | 30 | 100 | 0 | 30 | 100 | 90
CCc1ccc(-c2ccc(Cl)cc2C)cc1C1=C(O)[C@H]2[C@H]3CC[C@H](C3)[C@H]2C1=O [Compound T30] | 0 | 90 | 0 | 40 | 100 | 30

From patent US20120065066A1, “NOVEL HERBICIDES” (SYNGENTA CROP PROTECTION LLC, priority 2009, published 2012)
